This note sets out measurements from ChEMBL document CHEMBL1201862, “PubChem BioAssay data set” (2004).

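Following 48 hours of exposure in 96-well plates, responses at five concentrations were used to interpolate endpoints linearly. Abbreviation: GI50, concentration required for 50% inhibition of growth.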 The source made the active and inactive calls. Cut-off read from the data, not from the text of the source: active = GI50 up to about 1.1 µM and inactive = higher.

Holding throughout (assay): NCI tumour cell line growth inhibition, 48 h
Assay [1] deals with EKVX.
Assay [2] deals with Malme-3M.
Assay [3] deals with SK-MEL-5.
Assay [4] deals with MDA-N.
In assay [5] the test system is T47D.
Assay [6] has as its system NCI-H522.
Assay [7] has as its system SW-620.
The test system of assay [8] is HCT-15.
For assay [9], the system named is HCC 2998.
In assay [10] the test system is TK-10.
The test system of assay [11] is BT-549.
Assay [12] has as its system U-251.
For assay [13], the system named is NCI-H23.
Assay [14] deals with OVCAR-3.
For assay [15], the system named is RXF 393.
Assay [16] relates to SR.
Assay [17] has as its system SK-MEL-2.
The subject of assay [18] is NCI/ADR-RES.

For `Cc1cc(C(C)(C)C)cc(CNC2CCCCC2)c1O`, the GI50 in assay [1] was 15.7 µM (inactive); in assay [2] it was 14.3 µM (inactive); in assay [3] it was 17 µM (inactive); in assay [4], 16.3 µM (inactive); in assay [5], 14.8 µM (inactive); in [6], 12.6 µM (inactive). The GI50 is 19.9 µM (inactive) in [7]; 16.6 µM in [8]; 3 µM (inactive) in assay [9]; 16.1 µM (inactive) in [10]; 16.3 µM (inactive) in assay [11]; 16.3 µM (inactive) in assay [12]. Moreover, the GI50 was 15.4 µM (inactive) in assay [13]; 15.6 µM (inactive) in assay [14]; < 0.01 µM (active) in [15]; 21.8 µM (inactive) in [16]; 17.7 µM (inactive) in assay [17]; 16.4 µM (inactive) in assay [18].

As to `c1cc(CCN2CCCCC2)ccn1`, the GI50 in [1], in [2], in assay [3], in [4], in assay [5] and in assay [6] was > 100 µM (inactive) in each case. In addition, the GI50 is > 100 µM (inactive) in assay [7]; above 100 µM in assay [8]; > 100 µM (inactive) in [10]; > 100 µM (inactive) in assay [11]; > 100 µM (inactive) in assay [12]; > 100 µM (inactive) in assay [13]. For the same molecule, the GI50 is > 100 µM (inactive) in [14]; > 100 µM (inactive) in assay [15]; 33.3 µM (inactive) in assay [16]; > 100 µM (inactive) in assay [17]; > 100 µM (inactive) in [18].

`O=c1onc2n1-c1ccc(Cl)cc1C(=S)N1CSCC21` (stereo unspecified): the GI50 in [1] was 29.6 µM (inactive); in [2] it was 47.3 µM (inactive); in assay [3], 19.7 µM (inactive); in assay [4], 8.71 µM (inactive); in assay [5], 35.7 µM (inactive); in assay [6], 21.9 µM (inactive). Further, the GI50 in assay [7] was 20.7 µM (inactive); in assay [8], 26.6 µM; in assay [9], 19.5 µM (inactive); in [10], 70.5 µM (inactive); in assay [11], 20.5 µM (inactive); in assay [12], 18.2 µM (inactive). Also, the GI50 was 38.8 µM (inactive) in assay [14]; 33.6 µM (inactive) in assay [15]; 15.9 µM (inactive) in assay [16]; 25.1 µM (inactive) in assay [17]; 17.3 µM (inactive) in [18].

Regarding `Cc1c[n+]([O-])c2ccccc2[n+]1[O-]`, the GI50 in assay [1], in assay [2], in assay [3], in assay [4], in assay [5] and in [6] was > 100 µM (inactive) throughout. Further, the GI50 in assay [7] was > 100 µM (inactive); in assay [8], above 100 µM; in [10], > 100 µM (inactive); in [11] it was > 100 µM (inactive); in assay [12] it was > 100 µM (inactive); in assay [13], > 100 µM (inactive). The GI50 in assay [14], in assay [15], in assay [16], in assay [17] and in assay [18] was > 100 µM (inactive) in each case.

Consider `O=[N+]([O-])C(=C(Nc1ccccc1)Nc1ccccc1)/C(Cl)=C(\Cl)[N+](=O)[O-]`, for which the GI50 in assay [1] was 5.62 µM (inactive); in assay [2], 3.54 µM (inactive); in assay [3], 2.02 µM (inactive); in [4], 2.77 µM (inactive); in [5], 2.02 µM (inactive); in assay [7], 2.19 µM (inactive). In addition, the GI50 was 2.7 µM in assay [8]; 12.2 µM (inactive) in assay [9]; 5.16 µM (inactive) in assay [10]; 3.71 µM (inactive) in assay [11]; 4.92 µM (inactive) in assay [12]; 3.04 µM (inactive) in assay [13]. Also, the GI50 was 2.82 µM (inactive) in assay [14]; 1.89 µM (inactive) in [15]; 1.11 µM (active) in assay [16]; 9.84 µM (inactive) in assay [17]; 3.81 µM (inactive) in assay [18].
